Measurements: ChEMBL document CHEMBL1201862, “PubChem BioAssay data set” (2004)
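Results reflect a 48-hour exposure of cells in 96-well plates to compound at five concentrations. The concentration for 50% growth inhibition is given as GI50.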 The source made the active and inactive calls. Cut-off read from the data, not from the text of the source: active = GI50 up to about 1.1 µM and inactive = higher.

Experiments:
Assay in all cases: NCI tumour cell line growth inhibition, 48 h
MDA-N = test system: MDA-N
HCC 2998 = test system: HCC 2998
MDA-MB-435 = test system: MDA-MB-435
SK-MEL-28 = test system: SK-MEL-28
LOX IMVI = test system: LOX IMVI
IGROV-1 = test system: IGROV-1
SF-295 = test system: SF-295
SNB-75 = test system: SNB-75
UACC-62 = test system: UACC-62
HT-29 = test system: HT-29
K562 = test system: K562
OVCAR-4 = test system: OVCAR-4
NCI-H226 = test system: NCI-H226
CAKI-1 = test system: CAKI-1
SF-539 = test system: SF-539
SR = test system: SR
786-0 = test system: 786-0
OVCAR-3 = test system: OVCAR-3
HCT-116 = test system: HCT-116
SW-620 = test system: SW-620

Measured: GI50

Cc1ccc(O)c(C(c2cccc(C(c3cc(C)ccc3O)c3cc(C)ccc3O)c2)c2cc(C)ccc2O)c1
inactive: MDA-N 1.79 µM | HCC 2998 1.86 µM | MDA-MB-435 1.75 µM | SK-MEL-28 1.83 µM | LOX IMVI 1.54 µM | IGROV-1 1.56 µM | SF-295 2.24 µM | SNB-75 1.93 µM | UACC-62 1.99 µM | HT-29 1.66 µM | K562 1.81 µM | OVCAR-4 2.22 µM | NCI-H226 1.77 µM | CAKI-1 1.52 µM | SF-539 1.75 µM | SR 2.73 µM | 786-0 1.69 µM | OVCAR-3 2.21 µM | HCT-116 1.89 µM | SW-620 1.66 µM

O=C1CSC2(CC(/C=C/c3ccccc3[N+](=O)[O-])=NN2c2cccc(S(=O)(=O)O)c2)N1c1nc2ccccc2s1 (stereo not drawn)
inactive: MDA-N 17.9 µM | HCC 2998 30.3 µM | MDA-MB-435 14.8 µM | SK-MEL-28 38 µM | LOX IMVI 16.4 µM | IGROV-1 15.3 µM | SNB-75 15.3 µM | UACC-62 13.6 µM | HT-29 23.8 µM | K562 19.5 µM | OVCAR-4 15.3 µM | NCI-H226 16.8 µM | CAKI-1 32.7 µM | SF-539 23.5 µM | SR 20.2 µM | 786-0 12.3 µM | HCT-116 21.3 µM | SW-620 22.6 µM

COC(=O)C1(SC)C2CCC3C2CCC31 (stereo not drawn)
inactive: MDA-N > 100 µM | HCC 2998 > 100 µM | MDA-MB-435 > 100 µM | SK-MEL-28 > 100 µM | LOX IMVI > 100 µM | IGROV-1 > 100 µM | SF-295 > 100 µM | SNB-75 > 100 µM | K562 > 100 µM | OVCAR-4 > 100 µM | NCI-H226 > 100 µM | CAKI-1 > 100 µM | SF-539 > 100 µM | SR > 100 µM | 786-0 > 100 µM | OVCAR-3 > 100 µM | HCT-116 > 100 µM | SW-620 > 100 µM

O=C1C=C(Nc2ccc(Br)cc2)c2ccccc2/C1=N/O
inactive: MDA-N 1.89 µM | HCC 2998 3.84 µM | MDA-MB-435 1.83 µM | SK-MEL-28 2 µM | LOX IMVI 2.18 µM | IGROV-1 32.6 µM | SF-295 1.54 µM | SNB-75 2.75 µM | UACC-62 1.73 µM | HT-29 12.1 µM | K562 8.71 µM | OVCAR-4 6.84 µM | NCI-H226 2.32 µM | CAKI-1 6.52 µM | SF-539 9.48 µM | SR 9.38 µM | 786-0 9.73 µM | OVCAR-3 7.35 µM | HCT-116 11.4 µM | SW-620 4.32 µM

CC(=O)C1=CN=C2C(=O)N(c3ccccc3)N(C)C12C (stereo not drawn)
inactive: MDA-N > 100 µM | HCC 2998 16.9 µM | MDA-MB-435 > 100 µM | LOX IMVI > 100 µM | IGROV-1 > 100 µM | SF-295 > 100 µM | SNB-75 24.7 µM | UACC-62 > 100 µM | K562 > 100 µM | OVCAR-4 > 100 µM | NCI-H226 > 100 µM | CAKI-1 > 100 µM | SF-539 > 100 µM | SR > 100 µM | 786-0 > 100 µM | OVCAR-3 > 100 µM | HCT-116 > 100 µM | SW-620 > 100 µM

Cc1nc2ccc(S(=O)(=O)Nc3ccc(Cl)cc3)cc2c(=O)n1NC(=O)CNc1ccc(Cl)cc1
inactive: MDA-N > 100 µM | HCC 2998 > 100 µM | MDA-MB-435 > 100 µM | SK-MEL-28 > 100 µM | LOX IMVI > 100 µM | IGROV-1 > 100 µM | SF-295 > 100 µM | SNB-75 > 100 µM | UACC-62 > 100 µM | HT-29 > 100 µM | K562 > 100 µM | OVCAR-4 > 100 µM | NCI-H226 > 100 µM | CAKI-1 > 100 µM | SF-539 > 100 µM | SR > 100 µM | 786-0 > 100 µM | OVCAR-3 > 100 µM | HCT-116 > 100 µM | SW-620 > 100 µM

Cc1cc(S(=O)(=O)Nc2nc(N)n(-c3ccccn3)n2)c(S)cc1Cl
inactive: MDA-N > 100 µM | HCC 2998 > 100 µM | MDA-MB-435 > 100 µM | SK-MEL-28 > 100 µM | LOX IMVI > 100 µM | IGROV-1 > 100 µM | SNB-75 > 100 µM | UACC-62 > 100 µM | HT-29 > 100 µM | K562 > 100 µM | OVCAR-4 > 100 µM | NCI-H226 > 100 µM | CAKI-1 > 100 µM | SF-539 > 100 µM | SR > 100 µM | 786-0 > 100 µM | OVCAR-3 > 100 µM | HCT-116 > 100 µM | SW-620 > 100 µM
